Where only a bound is given, the exact number is not on record here.

The test addresses T1, recombinant human IDO1 enzyme (Homo sapiens, UniProt P14902).
T1 construct: purchased NTRC NTRC-hlDO-10K
The experiment in a line: In vitro hIDO1 enzyme activity test (NFK Green fluorescence). Type of test: biochemical. The following applies: recombinant human IDO1, L-tryptophan substrate, pH 6.5. As for the experimental part: The change of NFK production was detected by using the NFK Green™ fluorescent molecule, which is the metabolite of the IDO1 enzyme, and the IC50 value of the compound was used as an index, to evaluate the inhibitory effect of the compound on the recombinant human IDO1 enzyme.
IDO1 Enzyme Activity Assay Kit, NTRC # NTRC-hlDO-10K;
The compound was diluted to 1 mM in DMSO, and then diluted 3-fold in duplicate wells, with 10 gradients. 48 μL of 50 mM phosphate buffer (pH 6.5) was transferred to the compound plate via Bravo automated liquid handling platform. 2 μL of the diluted solution of the compound in DMSO was then added and mixed, followed by transferring 10 μL therein to an enzyme reaction plate.
The IDO1 enzyme was diluted to 20 nM in the reaction buffer (50 mM phosphate buffer pH 6.5, 0.1% Tween-20, 2% glycerol, 20 mM ascorbic acid, 20 μg/mL catalase and 20 μM methylene blue), and 20 μL of the solution was transferred to an enzyme reaction plate and incubated at 23° C. for 30 min. The reaction was started by adding 10 μL of 400 μM L-type tryptophan substrate and incubated at 23° C. for 90 min. 10 μL of NFK Green™ fluorescent dye was added, and the plate was sealed with the sealing film, incubated at 37° C. for 4 h, and then read on Envision Multimode Plate Reader (Ex 400 nm/Em 510 nm).
The control wells with the IDO1 enzyme but no compound was set as 0% inhibition, and the control wells without the IDO1 enzyme was set as 100% inhibition, and the IC50 value of the compound was calculated by analyzing the data with XLFit 5.

T1 sequence (P14902 whole entry): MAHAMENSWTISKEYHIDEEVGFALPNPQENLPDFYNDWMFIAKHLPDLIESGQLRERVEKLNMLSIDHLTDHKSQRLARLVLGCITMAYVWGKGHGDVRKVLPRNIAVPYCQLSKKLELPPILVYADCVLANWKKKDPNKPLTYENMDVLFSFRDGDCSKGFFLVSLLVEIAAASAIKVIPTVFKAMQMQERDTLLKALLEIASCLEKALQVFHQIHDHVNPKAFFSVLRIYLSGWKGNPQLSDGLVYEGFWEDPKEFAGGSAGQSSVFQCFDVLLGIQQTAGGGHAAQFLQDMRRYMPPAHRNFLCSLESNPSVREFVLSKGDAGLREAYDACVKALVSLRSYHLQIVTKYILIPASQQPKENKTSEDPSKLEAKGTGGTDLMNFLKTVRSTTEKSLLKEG

For the molecule `OC1CC(C2c3sccc3-c3cncn32)C1` (single isomer, unassigned) [Example 61, 3-(8H-thieno[3,4]pyrrolo[1,5-a]imidazol-8-yl)cyclobutanol], the half-maximal inhibitory concentration (IC50) is 1.2 µM.

As to `OC1CCCC(C2c3sccc3-c3cncn32)C1` (single isomer, unassigned) [Example 64, 3-(8H-thieno[3′,2′:3,4]pyrrolo[1,2-c]imidazol-8-yl)cyclohexanol], the IC50 is greater than 10 µM.

Regarding `OC1CCCC(C2c3sccc3-c3cncn32)C1` (single isomer, unassigned) [Example 65, 3-(8H-thieno[3′,2′:3,4]pyrrolo[1,2-c]imidazol-8-yl)cyclohexanol], the IC50 is 5.53 µM.

Turning to `OC1CCCC(C2c3sccc3-c3cncn32)C1` (single isomer, unassigned) [Example 66, 3-(8H-thieno[3′,2′:3,4]pyrrolo[1,2-c]imidazol-8-yl)cyclohexanol], the IC50 is greater than 10 µM.

With `OC1CCCC(C2c3sccc3-c3cncn32)C1` (single isomer, unassigned) [Example 67, 3-(8H-thieno[3′,2′:3,4]pyrrolo[1,2-c]imidazol-8-yl)cyclohexanol], the IC50 amounted to 0.162 µM.

In the case of `OC1CCCC(C2c3sccc3-c3cncn32)C1` (single isomer, unassigned) [Example 68, 3-(8H-thieno[3′,2′:3,4]pyrrolo[1,2-c]imidazol-8-yl)cyclohexanol], the IC50 was 1.83 µM.

For `OC1CCCC(C2c3sccc3-c3cncn32)C1` (single isomer, unassigned) [Example 69, 3-(8H-thieno[3′,2′:3,4]pyrrolo[1,2-c]imidazol-8-yl)cyclohexanol], the IC50 was 2.32 µM.

Consider `OC1CCCC(C2c3sccc3-c3cncn32)C1` (single isomer, unassigned) [Example 70, 3-(8H-thieno[3′,2′:3,4]pyrrolo[1,2-c]imidazol-8-yl)cyclohexanol], for which the half-inhibitory concentration (IC50) is 1.09 µM.

Consider `OC1CCCC(C2c3sccc3-c3cncn32)C1` (single isomer, unassigned) [Example 71, 3-(8H-thieno[3′,2′:3,4]pyrrolo[1,2-c]imidazol-8-yl)cyclohexanol], for which the IC50 was greater than 10 µM.

Regarding `c1cc2c(s1)C(C1CCCC1)n1cncc1-2` (single isomer, unassigned) [Example 74, 8-cyclopentyl-8H-thieno[3,4]pyrrolo[1,5-a]imidazole], the IC50 was 0.257 µM.

In the case of `c1cc2c(s1)C(C1CCCC1)n1cncc1-2` (single isomer, unassigned) [Example 75, 8-cyclopentyl-8H-thieno[3,4]pyrrolo[1,5-a]imidazole], the IC50 was greater than 10 µM.

As to `FC1(F)[C@@H]2C[C@H](C3c4sccc4-c4cncn43)C[C@@H]21` (single isomer, unassigned) [Example 76, 8-(6,6-difluoro-3-bicyclo[3.1.0]cyclohexyl)-8H-thieno[3,4]pyrrolo[1,5-a]imidazole (cis)], the IC50 was found to be 0.883 µM.

`CC1(C)CC(C2c3sccc3-c3cncn32)CCO1` (single isomer, unassigned) [Example 78, 8-(2,2-dimethyltetrahydropyran-4-yl)-8H-thieno[3,4]pyrrolo[1,5-a]imidazole]: the IC50 is greater than 10 µM.

With `CC1(C)CC(C2c3sccc3-c3cncn32)CCO1` (single isomer, unassigned) [Example 79, 8-(2,2-dimethyltetrahydropyran-4-yl)-8H-thieno[3,4]pyrrolo[1,5-a]imidazole], the IC50 was greater than 10 µM.

Turning to `CC1(C)CC(C2c3sccc3-c3cncn32)CCO1` (single isomer, unassigned) [Example 80, 8-(2,2-dimethyltetrahydropyran-4-yl)-8H-thieno[3,4]pyrrolo[1,5-a]imidazole], the IC50 was determined as 5.05 µM.

On to `CC1(C)CC(C2c3sccc3-c3cncn32)CCO1` (single isomer, unassigned) [Example 81, 8-(2,2-dimethyltetrahydropyran-4-yl)-8H-thieno[3,4]pyrrolo[1,5-a]imidazole], for which the IC50 turned out to be 8.27 µM.

Turning to `OC1CCCCC1C1c2sccc2-c2cncn21` (single isomer, unassigned) [Example 82], the IC50 amounted to 1.55 µM.

For `OC1CCCCC1C1c2sccc2-c2cncn21` (single isomer, unassigned) [Example 83], the half-inhibitory concentration (IC50) was 1.27 µM.

On to `OC1CCCCC1C1c2sccc2-c2cncn21` (single isomer, unassigned) [Example 84], for which the IC50 was determined as 0.454 µM.

Consider `c1ccc(N2CCC(C3c4sccc4-c4cncn43)CC2)cc1` (single isomer, unassigned) [Example 86, 8-(1-phenylpiperidin-4-yl)-8H-thieno[3′,2′:3,4]pyrrolo[1,2-c]imidazole], for which the IC50 came to 0.545 µM.

Take `c1ccc(N2CCC(C3c4sccc4-c4cncn43)CC2)cc1` (single isomer, unassigned) [Example 87, 8-(1-phenylpiperidin-4-yl)-8H-thieno[3′,2′:3,4]pyrrolo[1,2-c]imidazole]: the IC50 is greater than 10 µM.

On to `c1ccc(C2CCC(C3c4sccc4-c4cncn43)CC2)cc1` (single isomer, unassigned) [Example 88, 8-(4-phenylcyclohexyl)-8H-thieno[3′,2′:3,4]pyrrolo[1,2-c]imidazole], for which the IC50 turned out to be 0.478 µM.

For the molecule `c1ccc(C2CCC(C3c4sccc4-c4cncn43)CC2)cc1` (single isomer, unassigned) [Example 89, 8-(4-phenylcyclohexyl)-8H-thieno[3′,2′:3,4]pyrrolo[1,2-c]imidazole], the IC50 was greater than 10 µM.

Take `Cc1cc2c(s1)C(C1CCCCC1)n1cncc1-2` (single isomer, unassigned) [Example 90, 8-cyclohexyl-2-dimethyl-8H-thieno[3′,2′:3,4]pyrrolo[1,2-c]imidazole]: the IC50 is greater than 10 µM.

For `Cc1cc2c(s1)C(C1CCCCC1)n1cncc1-2` (single isomer, unassigned) [Example 91, 8-cyclohexyl-2-dimethyl-8H-thieno[3′,2′:3,4]pyrrolo[1,2-c]imidazole], the IC50 came out at 6.75 µM.

Consider `c1ccc2c(C3CCC(C4c5sccc5-c5cncn54)CC3)ccnc2c1` (single isomer, unassigned) [Example 92, 5-(4-(quinolin-4-yl)cyclohexyl)-8H-thieno[3′,2′:3,4]pyrrolo[1,2-c]imidazole], for which the IC50 amounted to 0.686 µM.

`c1ccc2c(C3CCC(C4c5sccc5-c5cncn54)CC3)ccnc2c1` (single isomer, unassigned) [Example 93, 5-(4-(quinolin-4-yl)cyclohexyl)-8H-thieno[3′,2′:3,4]pyrrolo[1,2-c]imidazole]: the IC50 was greater than 10 µM.

Consider `c1ccc2c(C3CCC(C4c5sccc5-c5cncn54)CC3)ccnc2c1` (single isomer, unassigned) [Example 94, 5-(4-(quinolin-4-yl)cyclohexyl)-8H-thieno[3′,2′:3,4]pyrrolo[1,2-c]imidazole], for which the IC50 came to 1.46 µM.

On to `c1ccc2c(C3CCC(C4c5sccc5-c5cncn54)CC3)ccnc2c1` (single isomer, unassigned) [Example 95, 5-(4-(quinolin-4-yl)cyclohexyl)-8H-thieno[3′,2′:3,4]pyrrolo[1,2-c]imidazole], for which the IC50 was greater than 10 µM.

For the molecule `O=C(O)C1CCCC(C2c3sccc3-c3cncn32)C1` (single isomer, unassigned) [Example 97, 3-(8H-thieno[3,4]pyrrolo[1,5-a]imidazol-8-yl) cyclohexylcarboxylic acid], the IC50 was greater than 10 µM.

Take `O=C(O)C1CCCC(C2c3sccc3-c3cncn32)C1` (single isomer, unassigned) [Example 98, 3-(8H-thieno[3,4]pyrrolo[1,5-a]imidazol-8-yl) cyclohexylcarboxylic acid]: the IC50 is greater than 10 µM.

With `O=C(O)C1CCCC(C2c3sccc3-c3cncn32)C1` (single isomer, unassigned) [Example 99, 3-(8H-thieno[3,4]pyrrolo[1,5-a]imidazol-8-yl) cyclohexylcarboxylic acid], the IC50 was greater than 10 µM.

`O=C(O)C1CCCC(C2c3sccc3-c3cncn32)C1` (single isomer, unassigned) [Example 100, 3-(8H-thieno[3,4]pyrrolo[1,5-a]imidazol-8-yl) cyclohexylcarboxylic acid]: the IC50 amounted to 6.77 µM.

Regarding `O=C(O)C1CCCC(C2c3sccc3-c3cncn32)C1` (single isomer, unassigned) [Example 101, 3-(8H-thieno[3,4]pyrrolo[1,5-a]imidazol-8-yl) cyclohexylcarboxylic acid], the IC50 was greater than 10 µM.

Take `O=C(O)C1CCCC(C2c3sccc3-c3cncn32)C1` (single isomer, unassigned) [Example 102, 3-(8H-thieno[3,4]pyrrolo[1,5-a]imidazol-8-yl) cyclohexylcarboxylic acid]: the IC50 is greater than 10 µM.

As to `O=C(O)C1CCCC(C2c3sccc3-c3cncn32)C1` (single isomer, unassigned) [Example 103, 3-(8H-thieno[3,4]pyrrolo[1,5-a]imidazol-8-yl) cyclohexylcarboxylic acid], the IC50 is greater than 10 µM.

`O=C(O)C1CCCC(C2c3sccc3-c3cncn32)C1` (single isomer, unassigned) [Example 104, 3-(8H-thieno[3,4]pyrrolo[1,5-a]imidazol-8-yl) cyclohexylcarboxylic acid]: the IC50 is greater than 10 µM.

By IC50 is commonly meant the midpoint of a concentration-inhibition curve.

The values are drawn from US10487088B2, “Tricyclic compound serving as immunomodulator” (Chia Tai Tianqing Pharmaceutical Group Co., Ltd., priority 2016, dated 2019).
